Measurements published in the NIST ThermoML archive (doi:10.1016/j.fluid.2017.12.010).
Numbers after ± are expanded uncertainties.

Test: xn = mol fraction of the nth substance listed
Conditions: Liquid, Vibrating tube method

CCCCCCCCCCCC [dodecane] + CCCCCCCCCC
Conditions	mass density [kg/m3]
283.29 K, 100 kPa, x2 = 0	756 ± 3
283.29 K, 1000 kPa, x2 = 0	757 ± 3
283.29 K, 3000 kPa, x2 = 0	758 ± 3
283.3 K, 5000 kPa, x2 = 0	760 ± 3
283.3 K, 10000 kPa, x2 = 0	763 ± 3
283.3 K, 30000 kPa, x2 = 0	775 ± 3
283.3 K, 40000 kPa, x2 = 0	780 ± 3
283.3 K, 50000 kPa, x2 = 0	785 ± 3
283.3 K, 60000 kPa, x2 = 0	790 ± 3
283.31 K, 20000 kPa, x2 = 0	769 ± 3
283.31 K, 70000 kPa, x2 = 0	795 ± 3
283.32 K, 80000 kPa, x2 = 0	799 ± 3
283.32 K, 90000 kPa, x2 = 0	803 ± 3
283.46 K, 100 kPa, x2 = 0.4436	748 ± 3
283.47 K, 1000 kPa, x2 = 0.4436	749 ± 3
283.47 K, 5000 kPa, x2 = 0.4436	752 ± 3
283.48 K, 10000 kPa, x2 = 0.4436	755 ± 3
283.48 K, 20000 kPa, x2 = 0.4436	762 ± 3
283.48 K, 40000 kPa, x2 = 0.4436	773 ± 3
283.49 K, 30000 kPa, x2 = 0.4436	767 ± 3
283.49 K, 60000 kPa, x2 = 0.4436	783 ± 3
283.49 K, 80000 kPa, x2 = 0.4436	792 ± 3
283.49 K, 100000 kPa, x2 = 0.4436	801 ± 3
283.52 K, 100 kPa, x2 = 0.2297	752 ± 3
283.52 K, 1000 kPa, x2 = 0.2297	753 ± 3
283.52 K, 5000 kPa, x2 = 0.2297	755 ± 3
283.52 K, 10000 kPa, x2 = 0.2297	759 ± 3
283.52 K, 20000 kPa, x2 = 0.2297	765 ± 3
283.52 K, 30000 kPa, x2 = 0.2297	771 ± 3
283.52 K, 40000 kPa, x2 = 0.2297	776 ± 3
283.53 K, 60000 kPa, x2 = 0.2297	786 ± 3
283.53 K, 80000 kPa, x2 = 0.2297	796 ± 3
283.54 K, 100000 kPa, x2 = 0.2297	804 ± 3
283.57 K, 1000 kPa, x2 = 0.7841	743 ± 3
283.58 K, 100 kPa, x2 = 0.7841	742 ± 3
283.59 K, 5000 kPa, x2 = 0.7841	745 ± 3
283.6 K, 10000 kPa, x2 = 0.7841	749 ± 3
283.61 K, 100 kPa, x2 = 0.6433	745 ± 3
283.61 K, 1000 kPa, x2 = 0.6433	745 ± 3
283.61 K, 20000 kPa, x2 = 0.7841	755 ± 3
283.61 K, 30000 kPa, x2 = 0.7841	761 ± 3
283.61 K, 40000 kPa, x2 = 0.7841	767 ± 3
283.61 K, 60000 kPa, x2 = 0.7841	777 ± 3
283.61 K, 80000 kPa, x2 = 0.7841	787 ± 3
283.61 K, 100000 kPa, x2 = 0.7841	795 ± 3
283.62 K, 5000 kPa, x2 = 0.6433	748 ± 3
283.62 K, 10000 kPa, x2 = 0.6433	752 ± 3
283.62 K, 20000 kPa, x2 = 0.6433	758 ± 3
283.62 K, 30000 kPa, x2 = 0.6433	764 ± 3
283.62 K, 40000 kPa, x2 = 0.6433	770 ± 3
283.62 K, 60000 kPa, x2 = 0.6433	780 ± 3
283.62 K, 80000 kPa, x2 = 0.6433	789 ± 3
283.62 K, 100000 kPa, x2 = 0.6433	798 ± 3
293.17 K, 100 kPa, x2 = 0	749 ± 3
293.18 K, 1000 kPa, x2 = 0	750 ± 3
293.19 K, 5000 kPa, x2 = 0	753 ± 3
293.19 K, 10000 kPa, x2 = 0	756 ± 3
293.19 K, 20000 kPa, x2 = 0	763 ± 3
293.19 K, 30000 kPa, x2 = 0	769 ± 3
293.19 K, 40000 kPa, x2 = 0	774 ± 3
293.19 K, 50000 kPa, x2 = 0	780 ± 3
293.19 K, 70000 kPa, x2 = 0	789 ± 3
293.19 K, 80000 kPa, x2 = 0	794 ± 3
293.19 K, 90000 kPa, x2 = 0	798 ± 3
293.19 K, 100000 kPa, x2 = 0	802 ± 3
293.2 K, 60000 kPa, x2 = 0	785 ± 3
293.43 K, 10000 kPa, x2 = 0.4436	749 ± 3
293.43 K, 20000 kPa, x2 = 0.4436	755 ± 3
293.43 K, 30000 kPa, x2 = 0.2297	765 ± 3
293.43 K, 30000 kPa, x2 = 0.4436	761 ± 3
293.43 K, 40000 kPa, x2 = 0.2297	771 ± 3
293.43 K, 40000 kPa, x2 = 0.4436	767 ± 3
293.43 K, 60000 kPa, x2 = 0.2297	781 ± 3
293.43 K, 60000 kPa, x2 = 0.4436	778 ± 3
293.43 K, 80000 kPa, x2 = 0.4436	787 ± 3
293.43 K, 100000 kPa, x2 = 0.4436	796 ± 3
293.44 K, 100 kPa, x2 = 0.4436	741 ± 3
293.44 K, 1000 kPa, x2 = 0.4436	742 ± 3
293.44 K, 5000 kPa, x2 = 0.4436	745 ± 3
293.44 K, 20000 kPa, x2 = 0.2297	759 ± 3
293.44 K, 80000 kPa, x2 = 0.2297	790 ± 3
293.44 K, 100000 kPa, x2 = 0.2297	799 ± 3
293.45 K, 100 kPa, x2 = 0.2297	745 ± 3
293.45 K, 1000 kPa, x2 = 0.2297	746 ± 3
293.45 K, 5000 kPa, x2 = 0.2297	749 ± 3
293.45 K, 10000 kPa, x2 = 0.2297	752 ± 3
293.51 K, 100000 kPa, x2 = 0.6433	793 ± 3
293.52 K, 100 kPa, x2 = 0.6433	738 ± 3
293.52 K, 1000 kPa, x2 = 0.6433	738 ± 3
293.52 K, 5000 kPa, x2 = 0.6433	741 ± 3
293.52 K, 10000 kPa, x2 = 0.6433	745 ± 3
293.52 K, 20000 kPa, x2 = 0.6433	752 ± 3
293.52 K, 30000 kPa, x2 = 0.6433	758 ± 3
293.52 K, 40000 kPa, x2 = 0.6433	764 ± 3
293.52 K, 60000 kPa, x2 = 0.6433	774 ± 3
293.52 K, 80000 kPa, x2 = 0.6433	784 ± 3
293.53 K, 60000 kPa, x2 = 0.7841	772 ± 3
293.53 K, 80000 kPa, x2 = 0.7841	781 ± 3
293.53 K, 100000 kPa, x2 = 0.7841	790 ± 3
293.54 K, 100 kPa, x2 = 0.7841	735 ± 3
293.54 K, 1000 kPa, x2 = 0.7841	735 ± 3
293.54 K, 5000 kPa, x2 = 0.7841	738 ± 3
293.54 K, 10000 kPa, x2 = 0.7841	742 ± 3
293.54 K, 20000 kPa, x2 = 0.7841	749 ± 3
293.54 K, 30000 kPa, x2 = 0.7841	755 ± 3
293.54 K, 40000 kPa, x2 = 0.7841	761 ± 3
303.04 K, 30000 kPa, x2 = 0	762 ± 3
303.04 K, 100000 kPa, x2 = 0	797 ± 3
303.05 K, 100 kPa, x2 = 0	742 ± 3
303.05 K, 1000 kPa, x2 = 0	743 ± 3
303.05 K, 5000 kPa, x2 = 0	746 ± 3
303.05 K, 20000 kPa, x2 = 0	756 ± 3
303.05 K, 50000 kPa, x2 = 0	774 ± 3
303.05 K, 60000 kPa, x2 = 0	779 ± 3
303.05 K, 70000 kPa, x2 = 0	784 ± 3
303.05 K, 80000 kPa, x2 = 0	789 ± 3
303.05 K, 90000 kPa, x2 = 0	793 ± 3
303.06 K, 10000 kPa, x2 = 0	749 ± 3
303.06 K, 40000 kPa, x2 = 0	768 ± 3
